For 26 compounds, IC50 results are on record in patent US8536180B2, “Pyrimidine inhibitors of kinase activity” (AbbVie Inc., priority 2009, dated 2013).

The experiment deals with T1, C-terminal GST-tagged, recombinant, human IGF-1R, amino acids 954-1367 (Homo sapiens, UniProt P08069).
T1 construct: human IGF-1R, amino acids 954-1367 expressed by baculovirus in Sf21 cells; GST (C); purchased Cell Signaling Technology; host or cells: baculovirus in Sf21 cells
The experiment is described as follows: IGF-1R homogenous time-resolved fluorescence (HTRF) in vitro kinase assay. Particulars: IGF-1R kinase, ATP 50 μM final, biotinylated peptide substrate 0.5 μM, 60 minutes at room temperature. The class given is biochemical. As to the method:
IGF-1R kinase activity was assayed by a homogenous time-resolved fluorescence (HTRF) in vitro kinase assay (Mathis, G., HTRF(R) Technology. J Biomol Screen, 1999. 4(6): p. 309-314). Specifically, 10 μL C-terminal GST-tagged, recombinant, human IGF-1R, amino acids 954-1367 expressed by baculovirus in Sf21 cells (Cell Signaling Technology) was mixed with 10 μL inhibitor (various concentrations, 2% final DMSO) and 10 μL of ATP (50 μM final concentration) in reaction buffer (50 mM HEPES, pH 7.5, 10 mM MgCl2, 2 mM MnCl2, 0.1% BSA and 1 mM DTT, 40 μL final volume). The reaction was initiated by addition of 10 μL of biotinylated peptide substrate (Biotin-Ahx-[…], 0.5 μM final concentration) in a black 384-well plate (Packard). After 60 minutes incubation at room temperature, the reaction was quenched by addition of 60 μL stop/revelation buffer to give 30 mM EDTA, 1 μg/mL streptavidin-APC (Prozyme), 50 ng/mL anti-phosphotyrosine mAb PT66-K Europium Cryptate, 30 mM HEPES, pH 7.5, 120 mM KF, 0.005% Tween-20, 0.05% BSA). The quenched reaction was allowed to stand at room temperature for 1 hour and then read in a time-resolved fluorescence detector (Envision, Perkin Elmer) at 615 nm and 665 nm simultaneously. The ratio between the signal of 615 nm and 665 nm was used in the calculation of the IC50.

Molecules are shown by their SMILES. A value given as a limit tells only on which side of the number the result lay.

T1 sequence (P08069 954-1367): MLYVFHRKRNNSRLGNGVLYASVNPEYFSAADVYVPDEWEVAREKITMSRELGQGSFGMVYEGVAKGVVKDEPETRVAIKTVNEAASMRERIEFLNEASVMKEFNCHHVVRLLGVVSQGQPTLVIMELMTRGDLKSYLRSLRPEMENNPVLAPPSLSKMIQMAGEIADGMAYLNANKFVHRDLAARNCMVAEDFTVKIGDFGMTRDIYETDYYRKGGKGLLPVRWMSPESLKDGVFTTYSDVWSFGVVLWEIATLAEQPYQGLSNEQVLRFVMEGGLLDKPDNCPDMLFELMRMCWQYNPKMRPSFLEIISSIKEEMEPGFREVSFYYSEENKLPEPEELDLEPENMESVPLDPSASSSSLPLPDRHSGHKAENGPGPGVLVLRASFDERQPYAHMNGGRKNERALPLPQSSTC

Usually IC50 stands for the concentration at which inhibition is half-maximal. Regarding `O=C1CCCN1c1cccc(Nc2nccc(-c3c(-c4ccc5[nH]c(Cc6ccccc6)nc5c4)nc4ccccn34)n2)c1` [Example 1, 1-[3-({4-[2-(2-benzyl-1H-benzimidazol-5-yl)imidazo[1,2-a]pyridin-3-yl]pyrimidin-2-yl}amino)phenyl]pyrrolidin-2-one], the IC50 is 10 to 50 nM.

In the case of `CN(C)CCc1cccc(Nc2nccc(-c3c(-c4ccc5nc(Cc6ccccc6)[nH]c5c4)nc4ccccn34)n2)c1` [Example 2, 4-[2-(2-benzyl-1H-benzimidazol-6-yl)imidazo[1,2-a]pyridin-3-yl]-N-{3-[2-(dimethylamino)ethyl]phenyl}pyrimidin-2-amine], the IC50 is < 10 nM.

Take `COc1ccccc1Cc1nc2cc(-c3nc4ccccn4c3-c3ccnc(Nc4cccc(CCN(C)C)c4)n3)ccc2[nH]1` [Example 3, N-{3-[2-(dimethylamino)ethyl]phenyl}-4-{2-[2-(2-methoxybenzyl)-1H-benzimidazol-5-yl]imidazo[1,2-a]pyridin-3-yl}pyrimidin-2-amine]: the IC50 is < 10 nM.

On to `c1ccc(Cc2nc3cc(-c4nc5ccccn5c4-c4ccnc(Nc5ccccc5)n4)ccc3[nH]2)cc1` [Example 4, 4-[2-(2-benzyl-1H-benzimidazol-5-yl)imidazo[1,2-a]pyridin-3-yl]-N-phenylpyrimidin-2-amine], for which the IC50 was 10 to 50 nM.

For `CN(C)CCc1cccc(Nc2nccc(-c3c(-c4ccc5[nH]c(Cc6ccccc6Cl)nc5c4)nc4ccccn34)n2)c1` [Example 5, 4-{2-[2-(2-chlorobenzyl)-1H-benzimidazol-5-yl]imidazo[1,2-a]pyridin-3-yl}-N-{3-[2-(dimethylamino)ethyl]phenyl}pyrimidin-2-amine], the IC50 is < 10 nM.

Turning to `CN(C)CCc1cccc(Nc2nccc(-c3c(-c4ccc5[nH]c(Cc6ccccc6C(F)(F)F)nc5c4)nc4ccccn34)n2)c1` [Example 6, N-{3-[2-(dimethylamino)ethyl]phenyl}-4-(2-{2-[2-(trifluoromethyl)benzyl]-1H-benzimidazol-5-yl}imidazo[1,2-a]pyridin-3-yl)pyrimidin-2-amine], the IC50 was < 10 nM.

Consider `CN(C)CCc1cccc(Nc2nccc(-c3c(-c4ccc5nc(Cc6ccccc6)[nH]c5c4)nc4sccn34)n2)c1` [Example 7, 4-[6-(2-benzyl-1H-benzimidazol-6-yl)imidazo[2,1-b][1,3]thiazol-5-yl]-N-{3-[2-(dimethylamino)ethyl]phenyl}pyrimidin-2-amine], for which the IC50 was < 10 nM.

Take `COc1ccccc1Cc1nc2ccc(-c3nc4sccn4c3-c3ccnc(Nc4cccc(CCN(C)C)c4)n3)cc2[nH]1` [Example 8, N-{3-[2-(dimethylamino)ethyl]phenyl}-4-{6-[2-(2-methoxybenzyl)-1H-benzimidazol-6-yl]imidazo[2,1-b][1,3]thiazol-5-yl}pyrimidin-2-amine]: the IC50 is < 10 nM.

Take `CN(C)CCc1cccc(Nc2nccc(-c3c(-c4ccc5nc(Cc6ccccc6Cl)[nH]c5c4)nc4sccn34)n2)c1` [Example 9, 4-{6-[2-(2-chlorobenzyl)-1H-benzimidazol-6-yl]imidazo[2,1-b][1,3]thiazol-5-yl}-N-{3-[2-(dimethylamino)ethyl]phenyl}pyrimidin-2-amine]: the 50% inhibitory concentration (IC50) is < 10 nM.

As to `CN(C)CCc1cccc(Nc2nccc(-c3c(-c4ccc5nc(CCc6ccccc6)[nH]c5c4)nc4ccccn34)n2)c1` [Example 10, N-{3-[2-(dimethylamino)ethyl]phenyl}-4-{2-[2-(2-phenylethyl)-1H-benzimidazol-6-yl]imidazo[1,2-a]pyridin-3-yl}pyrimidin-2-amine], the IC50 is 10 to 50 nM.

On to `c1ccc(Nc2nccc(-c3c(-c4ccc5nc(-c6ccccc6)[nH]c5c4)nc4ccccn34)n2)cc1` [Example 11, N-phenyl-4-[2-(2-phenyl-1H-benzimidazol-6-yl)imidazo[1,2-a]pyridin-3-yl]pyrimidin-2-amine], for which the IC50 lay in the range of 101 to 500 nM.

For the compound `CN(C)CCc1cccc(Nc2nccc(-c3c(-c4ccc5nc(Nc6ccccc6)[nH]c5c4)nc4ccccn34)n2)c1` [Example 12, 6-{3-[2-({3-[2-(dimethylamino)ethyl]phenyl}amino)pyrimidin-4-yl]imidazo[1,2-a]pyridin-2-yl}-N-phenyl-1H-benzimidazol-2-amine], the IC50 is < 10 nM.

On to `CN(C)CCc1cccc(Nc2nccc(-c3c(-c4ccc5nc(-c6ccccc6)[nH]c5c4)nc4ccccn34)n2)c1` [Example 13, N-{3-[2-(dimethylamino)ethyl]phenyl}-4-[2-(2-phenyl-1H-benzimidazol-6-yl)imidazo[1,2-a]pyridin-3-yl]pyrimidin-2-amine], for which the 50% inhibitory concentration (IC50) lay in the range of 10 to 50 nM.

Consider `COc1cc(N2CCOCC2)ccc1Nc1nccc(-c2c(-c3ccc4nc(Cc5ccccc5)[nH]c4c3)nc3ccccn23)n1` [Example 14, 4-[2-(2-benzyl-1H-benzimidazol-6-yl)imidazo[1,2-a]pyridin-3-yl]-N-(2-methoxy-4-morpholin-4-ylphenyl)pyrimidin-2-amine], for which the IC50 was < 10 nM.

`COc1ccccc1Nc1nccc(-c2c(-c3ccc4nc(Cc5ccccc5)[nH]c4c3)nc3ccccn23)n1` [Example 15, 4-[2-(2-benzyl-1H-benzimidazol-6-yl)imidazo[1,2-a]pyridin-3-yl]-N-(2-methoxyphenyl)pyrimidin-2-amine]: the IC50 lay within 51 to 100 nM.

Regarding `CS(=O)(=O)c1cccc(Nc2nccc(-c3c(-c4ccc5nc(Cc6ccccc6)[nH]c5c4)nc4ccccn34)n2)c1` [Example 16, 4-[2-(2-benzyl-1H-benzimidazol-6-yl)imidazo[1,2-a]pyridin-3-yl]-N-[3-(methylsulfonyl)phenyl]pyrimidin-2-amine], the IC50 is 51 to 100 nM.

`CN(C)S(=O)(=O)c1cccc(Nc2nccc(-c3c(-c4ccc5nc(Cc6ccccc6)[nH]c5c4)nc4ccccn34)n2)c1` [Example 17, 3-({4-[2-(2-benzyl-1H-benzimidazol-6-yl)imidazo[1,2-a]pyridin-3-yl]pyrimidin-2-yl}amino)-N,N-dimethylbenzenesulfonamide]: the IC50 was in the range of 101 to 500 nM.

For the compound `CS(=O)(=O)c1ccc(Nc2nccc(-c3c(-c4ccc5nc(Cc6ccccc6)[nH]c5c4)nc4ccccn34)n2)cc1` [Example 18, 4-[2-(2-benzyl-1H-benzimidazol-6-yl)imidazo[1,2-a]pyridin-3-yl]-N-[4-(methylsulfonyl)phenyl]pyrimidin-2-amine], the IC50 fell in the range of 51 to 100 nM.

On to `c1ccc(Nc2nccc(-c3c(-c4ccc5nc(Nc6ccccc6)[nH]c5c4)nc4ccccn34)n2)cc1` [Example 19, 6-[3-(2-anilinopyrimidin-4-yl)imidazo[1,2-a]pyridin-2-yl]-N-phenyl-1H-benzimidazol-2-amine], for which the IC50 was > 500 nM.

In the case of `COc1ccccc1Cc1nc2ccc(-c3nc4ccccn4c3-c3ccnc(Nc4ccc(N5CCOCC5)cc4OC)n3)cc2[nH]1` [Example 20, 4-{2-[2-(2-methoxybenzyl)-1H-benzimidazol-6-yl]imidazo[1,2-a]pyridin-3-yl}-N-(2-methoxy-4-morpholin-4-ylphenyl)pyrimidin-2-amine], the IC50 was 51 to 100 nM.

Turning to `COc1cc(N2CCOCC2)ccc1Nc1nccc(-c2c(-c3ccc4nc(Cc5c(F)cccc5F)[nH]c4c3)nc3ccccn23)n1` [Example 21, 4-{2-[2-(2,6-difluorobenzyl)-1H-benzimidazol-6-yl]imidazo[1,2-a]pyridin-3-yl}-N-(2-methoxy-4-morpholin-4-ylphenyl)pyrimidin-2-amine], the IC50 was in the range of 10 to 50 nM.

For `COc1cc(N2CCC(N3CCN(C)CC3)CC2)ccc1Nc1nccc(-c2c(-c3ccc4[nH]c(Cc5ccccc5)nc4c3)nc3ccccn23)n1` [Example 22, 4-[2-(2-benzyl-1H-benzimidazol-5-yl)imidazo[1,2-a]pyridin-3-yl]-N-{2-methoxy-4-[4-(4-methylpiperazin-1-yl)piperidin-1-yl]phenyl}pyrimidin-2-amine], the IC50 was < 10 nM.

In the case of `c1ccc(Cc2nc3ccc(-c4nc5sccn5c4-c4ccnc(Nc5ccccc5)n4)cc3[nH]2)cc1` [Example 23, 4-[6-(2-benzyl-1H-benzimidazol-6-yl)imidazo[2,1-b][1,3]thiazol-5-yl]-N-phenylpyrimidin-2-amine], the 50% inhibitory concentration (IC50) fell in the range of 51 to 100 nM.

As for `COc1ccccc1Nc1nccc(-c2c(-c3ccc4nc(Cc5ccccc5)[nH]c4c3)nc3sccn23)n1` [Example 24, 4-[6-(2-benzyl-1H-benzimidazol-6-yl)imidazo[2,1-b][1,3]thiazol-5-yl]-N-(2-methoxyphenyl)pyrimidin-2-amine], the IC50 fell in the range of 10 to 50 nM.

For the compound `Cc1cc(Nc2nccc(-c3c(-c4ccc5nc(Cc6ccccc6)[nH]c5c4)nc4ccccn34)n2)n[nH]1` [Example 25, 4-[2-(2-benzyl-1H-benzimidazol-6-yl)imidazo[1,2-a]pyridin-3-yl]-N-(5-methyl-1H-pyrazol-3-yl)pyrimidin-2-amine], the IC50 lay in the range of 51 to 100 nM.

Turning to `c1ccc(Cc2nc3ccc(-c4nc5ccccn5c4-c4ccnc(Nc5cc(C6CC6)n[nH]5)n4)cc3[nH]2)cc1` [Example 26, 4-[2-(2-benzyl-1H-benzimidazol-6-yl)imidazo[1,2-a]pyridin-3-yl]-N-(3-cyclopropyl-1H-pyrazol-5-yl)pyrimidin-2-amine], the IC50 is 10 to 50 nM.
